Measurements reported in patent US20120220567A1, “BENZO-FUSED OXAZEPINE COMPOUNDS AS STEAROYL-COENZYME A DELTA-9 DESATURASE INHIBITORS” (priority 2009, published 2012).
Like-named read-outs stand apart in the source and are kept apart here.

Molecular target: T1, SCD-1 (Homo sapiens, UniProt O00767)
T1 construct: 50 μg of protein from a HepG2 cell P2 pellet; endogenous in cells; host or cells: HepG2 cells (P2 pellet)
T1 sequence (O00767 1-359): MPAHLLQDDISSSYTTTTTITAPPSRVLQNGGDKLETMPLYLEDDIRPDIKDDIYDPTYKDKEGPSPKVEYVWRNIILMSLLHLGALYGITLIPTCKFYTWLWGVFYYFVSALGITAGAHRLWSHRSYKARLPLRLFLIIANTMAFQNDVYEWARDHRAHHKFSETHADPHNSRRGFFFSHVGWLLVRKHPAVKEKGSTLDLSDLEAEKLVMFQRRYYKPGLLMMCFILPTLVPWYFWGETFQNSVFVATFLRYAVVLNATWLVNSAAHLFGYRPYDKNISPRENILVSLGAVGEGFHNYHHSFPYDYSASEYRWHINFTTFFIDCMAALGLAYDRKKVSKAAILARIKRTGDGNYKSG
Experiment: Stearoyl-CoA desaturase assay (HepG2 cell P2 pellet)
Format: biochemical
Details: protein from HepG2 cell P2 pellet, 20 μM stearoyl-CoA, 15 min at 25° C., read-out: Ave IC50
Procedure: Stearoyl-CoA desaturase assays were performed in according to Talamo and Bloch. […] Assays were run in triplicate in 100-μl volumes of 100 mM TrisHCl, pH 7.3, containing 20 μM stearoyl-CoA, 2 mM β-NADH, and 50 μg of protein from a HepG2 cell P2 pellet. Since SCD-1 is the only isoform of SCD expressed in these cells, the assay is specific for SCD-1 with these cells as the source of enzyme. Reaction mixtures were incubated fifteen minutes at 25° C. and reactions were then stopped with a volume of trichloroacetic acid giving a final concentration of 0.2%. After five minutes, a 90-μl volume was transferred to a Millipore Multiscreen HTS 96-well filtration plate (MSHVN4B50) containing 125 μl of 10% charcoal in each well, to which vacuum had been previously applied. Plates were shaken fifteen minutes and then filtered into a collection plate. Fifty-μI volumes of filtrate were transferred to another plate containing 150 μl of MicroScint 40 for counting on a TopCount scintillation counter.

[1] = Table 3, compounds of formula (Ic)
[2] = Table 2, compounds of formula (Ib)
[3] = Table 1, compounds of formula (Ia)

| SMILES | IC50 [2] [nM] | IC50 [3] [nM] | further results |
| --- | --- | --- | --- |
| CCNC(=O)c1ccc(N2CCC3(CC2)CCN(Cc2cccc(C(F)(F)F)c2)c2ccccc2O3)nn1 [Compound 167] |  |  | IC50 [1]: 50 to 499 nM |
| O=C(NCc1ccccc1)c1cnc(N2CCC3(CC2)CCN(Cc2cccc(C(F)(F)F)c2)c2ccccc2O3)s1 [Compound 57] | 500 to 10000 |  |  |
| CC(C)(C)c1ccc(CN2CCC3(CCN(c4ncc(C(N)=O)s4)CC3)Oc3c(F)cccc32)cc1 [Compound 76] | 0.5 to 49 |  |  |
| O=C(c1cnc(N2CCC3(CC2)CCN(Cc2cccc(C(F)(F)F)c2)c2ccccc2O3)s1)N1CCCC1 [Compound 56] | 500 to 10000 |  |  |
| CCc1ccc(CN2CCC3(CCN(C(=O)C(CO)NC(C)=O)CC3)Oc3ccccc32)cc1 (centres unmarked) [Compound 2] |  | > 10000 |  |
| O=C(NCCc1c[nH]cn1)c1ccc(N2CCC3(CC2)CCN(Cc2cccc(C(F)(F)F)c2)c2ccccc2O3)nn1 [Compound 162] |  |  | IC50 [1]: 0.5 to 49 nM |
| CCc1ccc(CN2CCC3(CCN(C(=O)CNC(=O)C4CC4)CC3)Oc3ccccc32)cc1 [Compound 5] |  | 500 to 10000 |  |
| CC(C)(C)c1ccc(CN2CCC3(CCN(c4ncc(C(=O)O)s4)CC3)Oc3ccccc32)cc1 [Compound 64] | 50 to 499 |  |  |
| COc1ccc(CN2CCC3(CCN(C(=O)CNC(C)=O)CC3)Oc3ccccc32)cc1 [Compound 16] |  | 500 to 10000 |  |
| CCCNC(=O)c1ccc(N2CCC3(CC2)CCN(Cc2cccc(C(F)(F)F)c2)c2ccccc2O3)nn1 [Compound 157] |  |  | IC50 [1]: 50 to 499 nM |
| CCc1ccc(CN2CCC3(CCN(C(=O)CNC(=O)CC4CC4)CC3)Oc3ccccc32)cc1 [Compound 7] |  | 50 to 499 |  |
| CC(C)(C)c1ccc(CN2CCC3(CCN(c4ncc(C(=O)O)s4)CC3)Oc3c(F)cccc32)cc1 [Compound 74] | 0.5 to 49 |  |  |
| CC(=O)NCC(=O)N1CCC2(CC1)CCN(Cc1ccccc1Br)c1ccccc1O2 [Compound 37] |  | 500 to 10000 |  |
| CNC(=O)c1cnc(N2CCC3(CC2)CCN(Cc2ccc(C(C)(C)C)cc2)c2ccccc2O3)s1 [Compound 70] | 0.5 to 49 |  |  |
| O=C(NCCC1CC1)c1ccc(N2CCC3(CC2)CCN(Cc2cc4ccccc4o2)c2ccccc2O3)nn1 [Compound 180] |  |  | IC50 [1]: 0.5 to 49 nM |
| CC(=O)NCC(=O)N1CCC2(CC1)CCN(Cc1ccc(Cl)cc1)c1ccccc1O2 [Compound 17] |  | > 10000 |  |
| CC(=O)NCC(=O)N1CCC2(CC1)CCN(Cc1ccc(OC(C)(C)C)cc1)c1ccccc1O2 [Compound 18] |  | > 10000 |  |

| SMILES | IC50 [2] [nM] | IC50 [3] [nM] | further results |
| --- | --- | --- | --- |
| Cc1ccc(CCNC(=O)c2cnc(N3CCC4(CC3)CCN(Cc3ccc(C(C)(C)C)cc3)c3cccc(F)c3O4)s2)s1 [Compound 78] | 500 to 10000 |  |  |
| COC(=O)c1cnc(N2CCC3(CC2)CCN(Cc2cccc(C(F)(F)F)c2)c2ccccc2O3)s1 [Compound 50, methyl 2-(5-(3-(trifluoromethyl)benzyl)-4,5-dihydro-3H-spiro[benzo[b][1,4]oxazepine-2,4′-piperidine]-1′-yl)thiazole-5-carboxylate] | 0.5 to 49 |  |  |
| CC(=O)NCC(=O)N1CCC2(CC1)CCN(Cc1cccc(O)c1)c1ccccc1O2 [Compound 32] |  | 500 to 10000 |  |
| CC(=O)NCC(=O)N1CCC2(CC1)CCN(Cc1ccc(OC(F)(F)F)cc1)c1ccccc1O2 [Compound 22] |  | 500 to 10000 |  |
| CC(C)(C)c1ccc(CN2CCC3(CCN(c4ncc(C(=O)NCc5ccccc5)s4)CC3)Oc3ccccc32)cc1 [Compound 67] | 500 to 10000 |  |  |
| NC(=O)c1ccc(N2CCC3(CC2)CCN(Cc2cccc(C(F)(F)F)c2)c2ccccc2O3)nn1 [Compound 164] |  |  | IC50 [1]: 0.5 to 49 nM |
| CCc1ccc(CN2CCC3(CCN(C(=O)CNC(=O)Cc4cn(C)cn4)CC3)Oc3ccccc32)cc1 [Compound 11] |  | 500 to 10000 |  |
| CCc1ccc(CN2CCC3(CCN(C(=O)CNC(=O)Cc4ccccn4)CC3)Oc3ccccc32)cc1 [Compound 10] |  | > 10000 |  |
| CC(=O)NCC(=O)N1CCC2(CC1)CCN(Cc1ccccc1Cl)c1ccccc1O2 [Compound 28] |  | 500 to 10000 |  |
| CC(C)(C)c1ccc(CN2CCC3(CCN(c4ccc(C(=O)NCCC5CC5)nn4)CC3)Oc3ccccc32)cc1 [Compound 140] |  |  | IC50 [1]: 0.5 to 49 nM |
| O=C(NCCCO)c1ccc(N2CCC3(CC2)CCN(Cc2cccc(C(F)(F)F)c2)c2ccccc2O3)nn1 [Compound 161] |  |  | IC50 [1]: 50 to 499 nM |
| COC(=O)CCNC(=O)c1ccc(N2CCC3(CC2)CCN(Cc2cccc(C(F)(F)F)c2)c2ccccc2O3)nn1 [Compound 166] |  |  | IC50 [1]: 0.5 to 49 nM |
| CCNC(=O)c1cnc(N2CCC3(CC2)CCN(Cc2ccc(C(C)(C)C)cc2)c2ccccc2O3)s1 [Compound 68] | 0.5 to 49 |  |  |
| CC(=O)NCC(=O)N1CCC2(CC1)CCN(Cc1cccc(Cl)c1)c1ccccc1O2 [Compound 26] |  | 500 to 10000 |  |
| CC(=O)NCC(=O)N1CCC2(CC1)CCN(Cc1ccc(C(C)(C)C)cc1)c1cccc(F)c1O2 [Compound 46] |  | 500 to 10000 |  |
| CC(=O)NCC(=O)N1CCC2(CC1)CCN(Cc1ccc(C#N)cc1)c1ccccc1O2 [Compound 23] |  | > 10000 |  |
| CC(=O)NCC(=O)N1CCC2(CC1)CCN(Cc1ccc(C)cc1)c1ccccc1O2 [Compound 35] |  | 500 to 10000 |  |

The next lines start with results.

| IC50 [2] [nM] | IC50 [3] [nM] | SMILES | further results |
| --- | --- | --- | --- |
| 0.5 to 49 |  | CC(C)(C)c1ccc(CN2CCC3(CCN(c4ncc(C(=O)NCC5OCCO5)s4)CC3)Oc3c(F)cccc32)cc1 [Compound 88] |  |
| 50 to 499 |  | CC(C)(C)c1ccc(CN2CCC3(CCN(c4ncc(C(=O)NCc5ccccn5)s4)CC3)Oc3c(F)cccc32)cc1 [Compound 85] |  |
| > 10000 |  | CC(C)(C)c1ccc(CN2CCC3(CCN(c4ncc(C(=O)NCCCN5CCCC5)s4)CC3)Oc3c(F)cccc32)cc1 [Compound 117] |  |
| 50 to 499 |  | COCCNC(=O)c1cnc(N2CCC3(CC2)CCN(Cc2ccc(C(C)(C)C)cc2)c2cccc(F)c2O3)s1 [Compound 103] |  |
| 500 to 10000 |  | CC(C)(C)OC(=O)CCNC(=O)c1cnc(N2CCC3(CC2)CCN(Cc2ccc(C(C)(C)C)cc2)c2ccccc2O3)s1 [Compound 125] |  |
| 500 to 10000 |  | CC(C)(C)c1ccc(CN2CCC3(CCN(c4ncc(C(=O)NCCc5cccs5)s4)CC3)Oc3c(F)cccc32)cc1 [Compound 83] |  |
| 500 to 10000 |  | CC(C)(C)c1ccc(CN2CCC3(CCN(c4ncc(C(=O)NC[C@H](O)c5ccccc5)s4)CC3)Oc3c(F)cccc32)cc1 [Compound 99] |  |
| 500 to 10000 |  | Cc1cc(CNC(=O)c2cnc(N3CCC4(CC3)CCN(Cc3ccc(C(C)(C)C)cc3)c3cccc(F)c3O4)s2)no1 [Compound 97] |  |
| 500 to 10000 |  | CC(C)(C)c1ccc(CN2CCC3(CCN(c4ncc(C(=O)NCCCCCC(=O)O)s4)CC3)Oc3c(F)cccc32)cc1 [Compound 124] |  |
| > 10000 |  | CC(C)(C)c1ccc(CN2CCC3(CCN(c4ncc(C(=O)NCCn5ccnc5)s4)CC3)Oc3c(F)cccc32)cc1 [Compound 119] |  |
| 500 to 10000 |  | CC(C)(C)c1ccc(CN2CCC3(CCN(c4ncc(C(=O)NCCN5CCNC5=O)s4)CC3)Oc3c(F)cccc32)cc1 [Compound 113] |  |
| 500 to 10000 |  | CN(C)CCCNC(=O)c1cnc(N2CCC3(CC2)CCN(Cc2ccc(C(C)(C)C)cc2)c2cccc(F)c2O3)s1 [Compound 107] |  |
| 500 to 10000 |  | CC(C)(C)c1ccc(CN2CCC3(CCN(c4ncc(C(=O)NCC[C@H]5CC[C@H](O)C5)s4)CC3)Oc3c(F)cccc32)cc1 [Compound 80] |  |
| > 10000 |  | Cn1cncc1CNC(=O)c1cnc(N2CCC3(CC2)CCN(Cc2ccc(C(C)(C)C)cc2)c2cccc(F)c2O3)s1 [Compound 121] |  |
| 0.5 to 49 |  | CC(C)(C)c1ccc(CN2CCC3(CCN(c4ncc(C(=O)NCCCO)s4)CC3)Oc3ccccc32)cc1 [Compound 134] |  |
| 50 to 499 |  | CC(C)(C)c1ccc(CN2CCC3(CCN(c4ncc(C(=O)NCC(O)c5ccccn5)s4)CC3)Oc3c(F)cccc32)cc1 (centres unmarked) [Compound 118] |  |
